# Assay results published in ChEMBL document CHEMBL5233235, “Chalcone hybrids as privileged scaffolds in antimalarial drug discovery: A key review” (Eur J Med Chem, 2020).
# pIC50: −log10 of the molar value.
# How the values were obtained:
# Plasmodium = test: Antimalarial activity against Plasmodium falciparum K1 by [3H]-hypoxanthine uptake assay; type: functional, organism-based
# Plasmodium falciparum [1] = test: Antimalarial activity against Plasmodium falciparum; type: functional, organism-based
# Plasmodium falciparum [2] = test: Antimalarial activity against chloroquine-sensitive Plasmodium falciparum 3D7; type: functional, organism-based
# [3] = Selectivity index, ratio of EC50 for cytotoxicity against mouse FM3A cells to EC50 for antimalarial activity against Plasmodium falciparum ATCC 30932; type: toxicity, cell-based; settings: read-out: Ratio EC50
# [4] = Cytotoxicity against mouse FM3A cells incubated for 48 hrs; type: toxicity, cell-based
# Plasmodium falciparum [5] = test: Antimalarial activity against Plasmodium falciparum ATCC 30932 incubated for […]; type: functional, organism-based
# Plasmodium falciparum [6] = test: Antiparasitic activity against Plasmodium falciparum W2 incubated for 48 hrs by flow cytometry based analysis; type: functional, organism-based; settings: W2, 48 h
# Plasmodium falciparum [7] = test: Antiplasmodial activity against Plasmodium falciparum 3D7 incubated for 30 hrs followed by addition of [3H]-hypoxanthine and measured after 18 hrs by liquid scintillation counting method; type: functional, organism-based
# [8] = Cytotoxicity against human HepG2 cells; type: toxicity, cell-based
# Plasmodium falciparum [9] = test: Antimalarial activity against chloroquine-resistant Plasmodium falciparum W2 incubated for 48 hrs by microscopic analysis; type: functional, organism-based; settings: W2, 48 h
# Plasmodium falciparum [10] = test: Antimalarial activity against chloroquine-sensitive Plasmodium falciparum 3D7 by candle jar method; type: functional, organism-based
# Plasmodium falciparum [11] = test: Antimalarial activity against Plasmodium falciparum 3D7; type: functional, organism-based
# [12] = Plasmodium falciparum, 3D7, read-out: IC50
compound,measurement,setting,value
COc1ccc(C(=O)/C=C/c2cnc3ccccc3c2)c(OC)c1,pIC50,Plasmodium,> 5.30
CCc1ccc(/C=C/C(=O)c2ccc(OC)cc2OC)cc1,pIC50,Plasmodium,> 5.30
COc1ccc(/C=C/C(=O)c2ccc(OC)cc2OC)c(OC)c1,pIC50,Plasmodium,> 5.30
O=C(/C=C/c1c[nH]c2ccccc12)c1ccccc1O,pIC50,Plasmodium falciparum [1],5.68
O=C(/C=C/c1ccc([N+](=O)[O-])cc1)c1c(O)c2ccccc2oc1=O,IC50,Plasmodium falciparum [2],< 5 µg/mL
COc1ccc(C(=O)/C=C/c2ccc(OC)c(OC)c2)c(O)c1,selectivity ratio,[3],> 3.3
same,EC50 at 48 h,[4],> 3.3 µg/mL
same,EC50,Plasmodium falciparum [5],1 µg/mL
O=C(/C=C/c1cc2ccccc2nc1Cl)c1cc(Br)cc(Cl)c1O,MIC,Plasmodium falciparum [1],10 µg/mL
Cc1cccc(C(=O)/C=C(\I)c2cc3ccccc3nc2Cl)c1O,MIC,Plasmodium falciparum [1],50 µg/mL
COc1cc(/C=C/C(=O)c2ccc(NS(=O)(=O)c3cc(Cl)ccc3Cl)cc2)cc(OC)c1OC,pIC50,Plasmodium falciparum [6],6.32
CCO/C(C)=N/Oc1ccc(C(=O)/C=C/c2cc(OC)ccc2OC)cc1,IC50,Plasmodium falciparum [7]; [12],6 µg/mL
CCO/C(C)=N/Oc1ccc(/C=C/C(=O)c2ccc3ccccc3c2)cc1,IC50,[8],54 µg/mL
same,IC50,Plasmodium falciparum [7]; [12],12 µg/mL
O=C(/C=C/c1cccc(S(=O)(=O)N2CCOCC2)c1)c1ccccc1,pIC50,Plasmodium falciparum [9],5.69
COc1ccc(/C=C/C(=O)c2ccc(-n3ncc4ccccc43)cc2)c(OC)c1,IC50,Plasmodium falciparum [10],1.1 µg/mL
O=C(/C=C/c1ccc(F)cc1F)c1ccc(NS(=O)(=O)c2cc(Cl)ccc2Cl)cc1,pIC50,Plasmodium falciparum [6],6.17
CCO/C(C)=N/Oc1ccc(C(=O)/C=C/c2cc(OC)c(OC)c(OC)c2)cc1,IC50,[8],20 µg/mL
same,IC50,Plasmodium falciparum [7]; [12],12 µg/mL
COc1ccc2nc(Cl)c(/C=C/C(=O)c3cc(Br)cc(Cl)c3O)cc2c1,MIC,Plasmodium falciparum [1],10 µg/mL
COc1cc(/C=C/C(=O)c2c[n+]([O-])c3ccccc3[n+]2[O-])cc(OC)c1OC,pIC50,Plasmodium falciparum [1],5.21
O=C(/C=C/c1ccc2ccccc2c1)c1c[n+]([O-])c2ccccc2[n+]1[O-],pIC50,Plasmodium falciparum [1],5.24
CCO/C(C)=N/Oc1ccc(C(=O)/C=C/c2ccc(OCc3ccccc3)cc2)cc1,IC50,Plasmodium falciparum [7]; [12],12 µg/mL
C[C@@H]1CC[C@H]2[C@@H](C)C(=O)O[C@@H]3O[C@@]4(C)CC[C@@H]1[C@]32OO4 [ARTEMISININ],IC50,Plasmodium falciparum [7],0.021 uM/ml
COc1ccc(C(=O)/C=C/c2ccc(O)c(O)c2)c(O)c1 [CALYTHROPSIN],pIC50,Plasmodium falciparum [11],6.23
